Data taken from ChEMBL document CHEMBL4359822, “Design, synthesis of 4,5-diazafluorene derivatives and their anticancer activity via targeting telomeric DNA G-quadruplex” (Eur J Med Chem, 2019).
One block for each compound: values may come before it. The source made the active and inactive calls. No cut-off for these calls is given here.

Columns and labels:
[1] = Binding affinity to Tel26nt double stranded DNA (unknown origin) at 4 to 16 uM measured after each titration for 15 mins during 24 hrs incubation by circular dichroism analysis
[2] = tested on: A549; test: Inhibition of cell migration in human A549 cells at 0.2 uM incubated for 48 hrs by wound healing assay relative to control; type: functional; conditions: A549, 48 h
[3] = tested on: MCF7; test: Antiproliferative activity against human MCF7 cells incubated for 36 hrs by CCK8 assay; type: functional, cell-based; conditions: MCF7, 36 h
[4] = Binding affinity to biotinylated Tel26nt double stranded DNA (unknown origin) at 1:1 ratio of test compound to DNA by SPR analysis
[5] = Binding affinity to Tel26nt double stranded DNA (unknown origin) at 24 uM incubated for 24 hrs by EMSA
[6] = tested on: MCF7; test: Inhibition of cell migration in human MCF7 cells at 0.2 uM incubated for 48 hrs by wound healing assay relative to control; type: functional; conditions: MCF7, 48 h
[7] = Binding affinity to 26-nt telomeric G-rich RNA (unknown origin) at 24 uM incubated for 24 hrs by EMSA
[8] = Binding affinity to biotinylated Tel-26nt G-rich DNA (unknown origin) assessed as association equilibrium constant by SPR analysis
[9] = tested on: HepG2; test: Antiproliferative activity against human HepG2 cells incubated for 36 hrs by CCK8 assay; type: functional, cell-based; conditions: HepG2, 36 h
[10] = Binding affinity to biotinylated Tel-26nt G-rich DNA (unknown origin) assessed as dissociation rate constant by SPR analysis
[11] = Selectivity index, ratio of IC50 for human MRC5 cells to IC50 for human A549 cells; type: toxicity; conditions: MRC5 cells versus A549 cells, read-out: Ratio IC50
[12] = Binding affinity to Tel-26nt G-rich DNA (unknown origin) at 4 to 16 uM measured after each titration for 15 mins during 24 hrs incubation by circular dichroism analysis
[13] = Binding affinity to biotinylated Tel26nt double stranded DNA (unknown origin) assessed as association equilibrium constant by SPR analysis
[14] = tested on: MRC5; test: Antiproliferative activity against human MRC5 cells incubated for 36 hrs by CCK8 assay; type: cell-based; conditions: MRC5, 36 h
[15] = target: Telomerase reverse transcriptase (Homo sapiens) (UniProt O14746); test: Inhibition of telomerase activity in human A549 cells at 8 uM by TRAP assay relative to control; type: cell-based
Telomerase reverse transcriptase (Homo sapiens), sequence (O14746 whole entry): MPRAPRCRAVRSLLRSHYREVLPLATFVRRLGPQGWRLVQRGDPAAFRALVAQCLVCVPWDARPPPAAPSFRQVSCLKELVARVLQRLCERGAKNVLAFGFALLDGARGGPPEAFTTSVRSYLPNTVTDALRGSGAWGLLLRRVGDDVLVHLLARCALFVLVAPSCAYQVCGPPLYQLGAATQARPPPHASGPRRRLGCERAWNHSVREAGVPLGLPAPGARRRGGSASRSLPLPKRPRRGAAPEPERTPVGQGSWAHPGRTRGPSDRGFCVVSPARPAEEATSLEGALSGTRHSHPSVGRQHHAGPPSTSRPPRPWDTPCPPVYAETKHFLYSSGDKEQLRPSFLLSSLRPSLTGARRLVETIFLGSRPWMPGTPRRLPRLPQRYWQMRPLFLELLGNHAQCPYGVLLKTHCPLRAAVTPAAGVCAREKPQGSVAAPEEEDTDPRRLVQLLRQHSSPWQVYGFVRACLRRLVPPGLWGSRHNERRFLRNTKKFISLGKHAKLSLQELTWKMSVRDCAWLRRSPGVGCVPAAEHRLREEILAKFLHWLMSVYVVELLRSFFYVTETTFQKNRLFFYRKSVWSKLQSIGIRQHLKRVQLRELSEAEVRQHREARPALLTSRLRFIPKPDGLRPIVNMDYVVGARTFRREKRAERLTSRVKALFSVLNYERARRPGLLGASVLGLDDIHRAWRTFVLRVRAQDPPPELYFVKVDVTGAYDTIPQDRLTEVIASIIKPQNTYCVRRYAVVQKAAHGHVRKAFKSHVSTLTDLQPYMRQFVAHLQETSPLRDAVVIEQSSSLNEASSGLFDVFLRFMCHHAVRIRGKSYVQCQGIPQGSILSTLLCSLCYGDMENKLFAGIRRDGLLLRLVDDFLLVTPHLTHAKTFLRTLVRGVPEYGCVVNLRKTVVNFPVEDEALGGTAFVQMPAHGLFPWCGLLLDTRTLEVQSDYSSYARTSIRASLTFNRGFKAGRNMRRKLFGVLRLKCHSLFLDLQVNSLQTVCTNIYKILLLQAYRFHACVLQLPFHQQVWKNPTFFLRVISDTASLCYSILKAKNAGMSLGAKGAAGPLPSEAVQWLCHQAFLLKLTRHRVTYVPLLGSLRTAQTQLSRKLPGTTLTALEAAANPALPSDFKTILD

[16] = Binding affinity to Tel-26nt mutated-single-stranded DNA (unknown origin) at 4 to 16 uM measured after each titration for 15 mins during 24 hrs incubation by circular dichroism analysis
[17] = Binding affinity to Tel-26nt G-rich DNA (unknown origin) at 10 uM by UV-Vis spectrophotometric analysis
[18] = tested on: HepG2; test: Antiproliferative activity against human HepG2 cells at 10 uM incubated for 36 hrs by CCK8 assay; type: functional, cell-based
[19] = tested on: AGS; test: Inhibition of cell migration in human AGS cells at 0.1 uM incubated for 48 hrs by wound healing assay relative to control; type: functional
[20] = tested on: MCF7; test: Antiproliferative activity against human MCF7 cells at 10 uM incubated for 36 hrs by CCK8 assay; type: functional, cell-based
[21] = Selectivity index, ratio of IC50 for human MRC5 cells to IC50 for human MCF7 cells; type: toxicity; conditions: MRC5 cells versus MCF7 cells, read-out: Ratio IC50
[22] = Binding affinity to biotinylated Tel26nt double stranded DNA (unknown origin) assessed as dissociation rate constant by SPR analysis
[23] = tested on: AGS; test: Inhibition of cell migration in human AGS cells at 0.4 uM incubated for 48 hrs by wound healing assay relative to control; type: functional
[24] = Selectivity ratio of binding affinity to biotinylated Tel26nt double stranded DNA (unknown origin) to binding affinity to biotinylated Tel-26nt G-rich DNA (unknown origin)
[25] = tested on: MCF7; test: Inhibition of cell migration in human MCF7 cells at 0.4 uM incubated for 48 hrs by wound healing assay relative to control; type: functional; conditions: MCF7, 48 h
[26] = tested on: A549; test: Inhibition of cell migration in human A549 cells at 0.4 uM incubated for 48 hrs by wound healing assay relative to control; type: functional; conditions: A549, 48 h
[27] = Binding affinity to Tel-26nt G-rich DNA (unknown origin) assessed as change in melting temperature by UV-vis spectrophotometry
[28] = Binding affinity to Tel-26nt G-rich DNA (unknown origin) assessed as change in melting temperature at 8 uM by UV-vis spectrophotometry (reference value: 38.33 +/- 0.07 degreeC)
[29] = Selectivity index, ratio of IC50 for human MRC5 cells to IC50 for human HEPG2 cells
[30] = tested on: A549; test: Antiproliferative activity against human A549 cells incubated for 36 hrs by CCK8 assay; type: functional, cell-based; conditions: A549, 36 h
[31] = Binding affinity to Tel-26nt G-rich DNA (unknown origin) assessed as change in melting temperature at 2 uM by UV-vis spectrophotometry (reference value: 38.33 +/- 0.07 degreeC)
[32] = tested on: HepG2; test: Inhibition of cell migration in human HepG2 cells at 0.2 uM incubated for 48 hrs by wound healing assay relative to control; type: functional; conditions: HepG2, 48 h
[33] = Binding affinity to Tel-26nt G-rich DNA (unknown origin) at 12 uM incubated for 24 hrs by EMSA
[34] = tested on: A549; test: Antiproliferative activity against human A549 cells at 10 uM incubated for 36 hrs by CCK8 assay; type: functional, cell-based
[35] = Binding affinity to Tel-26nt mutated-single-stranded DNA (unknown origin) at 24 uM incubated for 24 hrs by EMSA
[36] = Binding affinity to Tel-26nt G-rich DNA (unknown origin) incubated for 24 hrs by EMSA
[37] = tested on: HepG2; test: Inhibition of cell migration in human HepG2 cells at 0.4 uM incubated for 48 hrs by wound healing assay relative to control; type: functional; conditions: HepG2, 48 h
[38] = tested on: HepG2; test: Inhibition of cell migration in human HepG2 cells at 0.1 uM incubated for 48 hrs by wound healing assay relative to control; type: functional; conditions: HepG2, 48 h
[39] = tested on: AGS; test: Antiproliferative activity against human AGS cells incubated for 36 hrs by CCK8 assay; type: functional, cell-based
[40] = Binding affinity to Tel-26nt G-rich DNA (unknown origin) at 0.25 :1 to 6 : 1 ratio of test compound to DNA measured after each titration for 15 mins during 24 hrs incubation by circular dichroism analysis
[41] = Binding affinity to Tel-26nt G-rich DNA (unknown origin) at => 3 uM incubated for 24 hrs by EMSA
[42] = Binding affinity to biotinylated Tel-26nt G-rich DNA (unknown origin) at 1:1 ratio of test compound to DNA by SPR analysis
[43] = Binding affinity to Tel-26nt C-rich DNA (unknown origin) at 24 uM incubated for 24 hrs by EMSA
[44] = tested on: A549; test: Inhibition of cell migration in human A549 cells at 0.1 uM incubated for 48 hrs by wound healing assay relative to control; type: functional; conditions: A549, 48 h
[45] = Binding affinity to biotinylated Tel-26nt G-rich DNA (unknown origin) assessed as association rate constant by SPR analysis
[46] = Binding affinity to biotinylated Tel26nt double stranded DNA (unknown origin) assessed as association rate constant by SPR analysis
[47] = Binding affinity to Tel-26nt G-rich DNA (unknown origin) assessed as change in melting temperature at 8 uM by UV-vis spectrophotometry
[48] = tested on: AGS; test: Antiproliferative activity against human AGS cells at 10 uM incubated for 36 hrs by CCK8 assay; type: functional, cell-based
[49] = target: Telomerase reverse transcriptase (Homo sapiens) (UniProt O14746); test: Inhibition of telomerase activity in human A549 cells at 2 to 8 uM by TRAP assay; type: cell-based
[50] = tested on: MCF7; test: Inhibition of cell migration in human MCF7 cells at 0.1 uM incubated for 48 hrs by wound healing assay relative to control; type: functional; conditions: MCF7, 48 h
[51] = Binding affinity to Tel-26nt G-rich DNA (unknown origin) assessed as change in melting temperature at 4 uM by UV-vis spectrophotometry (reference value: 38.33 +/- 0.07 degreeC)
[52] = tested on: AGS; test: Inhibition of cell migration in human AGS cells at 0.2 uM incubated for 48 hrs by wound healing assay relative to control; type: functional
[53] = Selectivity index, ratio of IC50 for human MRC5 cells to IC50 for human AGS cells; type: toxicity; conditions: MRC5 cells versus AGS cells, read-out: Ratio IC50
[54] = Binding affinity to Tel-26nt G-rich DNA (unknown origin) assessed as change in melting temperature at 2 uM by UV-vis spectrophotometry

Activity [1]: inactive
IC50 [3]: 5.27 µM
Activity [4]: inactive
Activity [5]: Active
Activity [7]: inactive
KA [8]: 7.04 ×10⁷ /M
IC50 [9]: 3.48 µM
Kd [10]: 9.49 ×10⁻² /s
Activity [12]: Active
KA [13]: 4.38 ×10⁴ /M
inhibition [15]: 61.7%
Activity [16]: inactive
Activity [17]: Active
Kd [22]: 2.58 ×10⁻² /s
Selectivity ratio [24]: > 1000
deltaTm [27]: Dose-dependent effect
Tm [28]: 44.9 °C
IC50 [30]: 1.13 µM
Tm [31]: 48.6 °C
Activity [33]: Active
Activity [35]: inactive
Activity [36]: Dose-dependent effect
IC50 [39]: 1.81 µM
Activity [40]: Active
Activity [41]: Active
Activity [42]: Active
Activity [43]: inactive
Ka [45]: 6.68 ×10⁶ /M/s
Ka [46]: 1.13 ×10³ /M/s
ΔTm [47]: 24.3 °C
inhibition [49]: Active
Tm [51]: 53.1 °C
SMILES: CN(C)CCCn1cc(C=C2c3cccnc3-c3ncccc32)c(-c2ccc(Br)cc2)n1
inhibition at 0.2 µM [2]: 61.7%
inhibition at 0.2 µM [6]: 50.3%
selectivity ratio [11]: 7.01
IC50 [14]: 7.92 µM
growth inhibition (GI) [18]: Active
inhibition at 0.1 µM [19]: 52.2%
growth inhibition (GI) [20]: Active
selectivity ratio [21]: 1.46
inhibition at 0.4 µM [23]: 89.8%
inhibition at 0.4 µM [25]: 67.3%
inhibition at 0.4 µM [26]: 84.5%
Ratio IC50 [29]: 2.21
inhibition at 0.2 µM [32]: 49.3%
growth inhibition (GI) [34]: Active
inhibition at 0.4 µM [37]: 69.3%
inhibition at 0.1 µM [38]: 27.9%
inhibition at 0.1 µM [44]: 22.3%
growth inhibition (GI) [48]: Active
inhibition at 0.1 µM [50]: 31.9%
inhibition at 0.2 µM [52]: 71.7%
selectivity ratio [53]: 4.25

IC50 [3]: 11.8 µM
IC50 [9]: 6.43 µM
deltaTm [27]: Dose-dependent effect
Tm [28]: 43.4 °C
IC50 [30]: 4.15 µM
ΔTm [54]: 4.82 °C
Tm [31]: 45.6 °C
Activity [36]: Dose-dependent effect
IC50 [39]: 5.52 µM
Activity [41]: Active
inhibition [49]: Active
Tm [51]: 45.7 °C
SMILES: CN(C)CCCn1cc(C=C2c3cccnc3-c3ncccc32)c(-c2ccc(Cl)cc2)n1
inhibition at 0.2 µM [2]: 54.5%
inhibition at 0.2 µM [6]: 41.2%
selectivity ratio [11]: 2.36
IC50 [14]: 9.81 µM
growth inhibition (GI) [18]: Active
inhibition at 0.1 µM [19]: 37.5%
growth inhibition (GI) [20]: Active
selectivity ratio [21]: 0.83
inhibition at 0.4 µM [23]: 80%
inhibition at 0.4 µM [25]: 54.8%
inhibition at 0.4 µM [26]: 78%
Ratio IC50 [29]: 1.52
inhibition at 0.2 µM [32]: 43.2%
growth inhibition (GI) [34]: Active
inhibition at 0.4 µM [37]: 62.3%
inhibition at 0.1 µM [38]: 19.4%
inhibition at 0.1 µM [44]: 21.2%
growth inhibition (GI) [48]: Active
inhibition at 0.1 µM [50]: 17.9%
inhibition at 0.2 µM [52]: 56%
selectivity ratio [53]: 1.78
